# According to patent publication US8440800B2, “Compositions for reducing cell adhesion to bubbles” (The Ohio State University Research Foundation, priority 2006, dated 2013):
# Read-outs that look alike come from different tables or passages of the source.
# Key:
# [1] = CMC and static surface tension, maximum bubble pressure method; type: physicochemical; conditions: for CMC: 37° C., CD CHO-A medium; for CMC SURFACE TENSION: cell culture medium at 37° C.
# Method: (§1) The CMC depends on temperature and solution components. Given the significant number of components in typical cell culture media, the CMC of the comparative materials and the protective compositions were determined at 37° C. and in CD CHO-A medium using a SensaDyne bubble tensiometer PC500L (Chem-Dyne Research Corporation, Mesa, Ariz.), which uses the maximum bubble pressure method. The time between initial bubble formation and attainment of maximum bubble pressure, “surface age”, can be varied by changing the gas flow rate. When the static surface tensions were measured, the surface age were adjusted to approximate 1 s, which was enough for small molecule surfactants to migrate to the bubble surface and potentially reach equilibrium. When the dynamic surface tensions were measured, the surface age was varied in the range of about 0.1 to about 3.0 seconds.
# [2] = tested on: Chinese Hamster Ovary cells (CHO) cell line K1; test: Fluorescent cytotoxicity screening, 96-well plates, calcein AM; type: cell-based
# Method: (§2) Chinese Hamster Ovary cells (CHO) cell line K1 (ATCC CCL-61) were used. The cells were initially cultured in Ham F-12 culture medium supplemented with 10% v/v fetal bovine serum (Sigma Aldrich Co., St. Louis, Mo.) in T-75 flasks. Then the cells were gradually adapted to chemically-defined medium (CD CHO-A, Invitrogen, Carlsbad, Calif.), which contain no PF-68. The cells were subcultured every 3-4 days and maintained at 37° C. incubator with 5% CO2. All the cultures were anchorage-dependent.
# The materials were compared at the same concentration relative to the specific surfactants critical micelle concentration, CMC, i.e., 0.01 CMC or 0.1 CMC. In order to minimize the effect of potential adsorption during filter sterilization, the concentrated material solutions were applied, and then diluted to desired concentration at time of use.
# Black, clear-bottom 96-well plates (Fisher Scientific, Hampton, N.H.) were used in the screening experiments. In each well, 150 μl cell suspensions with a total cell number of approximately 10^4 were inoculated along with the test materials and subsequently cultured in a 37° C. incubator with 5% CO2. After 48 hours, the supernatant was carefully removed while the attached CHO cells remained at the bottom of the well. 100 μl of 4 μM calcein AM solution (Invitrogen, Carlsbad, Calif.), a fluorescence probe, was added to each well and incubated for one hour at 37° C. in order to quickly assess cell growth (Yang et al., 2002). Calcein AM is an esterase substrate which can be converted into a polar, fluorescent product by an intracellular enzyme. The fluorescence density was read by a Cytofluor 4000 (Applied Biosystems, Foster City, Calif.). Six replications were performed for each condition (type of material and concentration) and the positions on the 96 well plates were randomized. A reasonable linear relationship between cell number (less than 5×10^5 per well) and fluorescence density was confirmed before screening experiments; however, a control was created with each specific experiment.
# [3] = tested on: Chinese Hamster Ovary cells (CHO) cell line K1; test: Cytotoxicity studies in T25 flasks (cell growth); type: cell-based; conditions: T-25 flasks, 48 hours; concentrations of FIG. 6
# Method: as §2
# Various candidate materials from the 96 well plate assays were further investigated using T25 flasks. The concentration of the candidate materials were tested at discrete concentration, which depended on the specific material, but at the highest concentration exceeded 0.1 CMC. In all cases, tested, a concentration at which cell growth began to be inhibited was detected.
# Additional protective compositions, Nonyl maltopyranoside (NM) and CYMAL®-4 (CM4), were purchased from Anatace Inc. (Maumee, Ohio). The inoculation was 3.0×10^5 cells/ml. After 48 hours, the cells were harvested by Accutase® (Innovative Cell Technologies Inc., San Diego, Calif.) and counted by a hemocytometer. Besides cell growth, the morphology of cells was also monitored by an inverted microscope (Nikon Ecllipse TE2000-U, Melville, N.Y.).
# [4] = Dynamic surface tension in cell culture medium; type: physicochemical; conditions: 0.28 g/L
# Method: as §1
# [5] = tested on: CHO K1 cells; test: Bubble-cell interactions, cell enrichment factor in foam (bubble collector, LDH); type: cell-based, Chinese Hamster
# Method: An improved bubble collector device described by Ma et al. (2004) was used to quantitatively study cell entrapment in the foam. Specifically, this device can isolate bubble rupture events from foam formation vessel as well as maintain a plug-flow of bubbles from the foam layer into the bubble collection tube.
# The cell concentration was determined using the lactate dehydrogenase (LDH) assay (CytoTox 96, Promega, Madison, Wis.). 9% (w/v) Triton X-100 solution was added to the cell suspension to be evaluated at a ratio of 1 to 10, and subsequently incubated at 37° C. for 45 minutes in order to lyse all the cells. A standard curve between LDH absorption and cell concentration by hemocytometer measurement was made for each set of experiments. The foam liquid volume was also measured by weighing the collect tube before and after experiments, assuming a liquid density of 1.0 g/ml.
# For the bubble column studies, CHO K1 cells, grown in CD-CHO medium, were harvested during exponential phase of growth in spinner flasks. […]
# Two spargers, a 22 gauge needle and a sintered glass (ACE glass, Vineland, N.J.) provided bubbles which produced, as expected, two different bubble sizes. The bubbles sizes were determined using a SCIMAX CCD digital camera (MVIA, Monaca, Pa.) and an infinity lens (ISCO Precision Optics GMBH, Germany) in a glass square column. […]
# [6] = Bubble size for two spargers (CCD camera); type: physicochemical
# Method: Two spargers, a 22 gauge needle and a sintered glass (ACE glass, Vineland, N.J.) provided bubbles which produced, as expected, two different bubble sizes. The bubbles sizes were determined using a SCIMAX CCD digital camera (MVIA, Monaca, Pa.) and an infinity lens (ISCO Precision Optics GMBH, Germany) in a glass square column. The cell enrichment factor can be defined as the ratio of total LDH concentration in the foam liquid to that in the bulk liquid after lysing all the cells.
# Consistent with the techniques used by Ma et al. (2004), the effectiveness of the protective compositions with respect to cell-bubble interactions was evaluated using the bubble collection device. Prior to the studies with cells, the size of the bubbles generated using a sintered glass sparger and a 22 gauge needle and two different concentrations of the PF-68® comparative material and the protective composition NM were determined.
# [7] = tested on: red blood cells; conditions: cited from earlier work
SMILES,CMC [1],HEAD GROUP SIZE [1],CMC SURFACE TENSION [1],further results
"CCCCCCCCCCOS(=O)(=O)[O-].[Na+] [SDeS, Sodium decyl sulfate]",12.2 mM,,,
"CCCCCCCCCCCC[N+](C)(C)C.[Br-] [DTAB, Dodecyltrimethyl ammonium bromide]",7.0 mM,,,"Cytotoxicity (inhibition of cell growth, fluorescence intensity) ([2]; 0.01 CMC and 0.1 CMC, 48 hours): most toxic to cells; Microscopic observation of cells ([2]; at the lowest concentration): completely lysed the cells"
"CCCCCCCCCCO[C@@H]1O[C@H](CO)[C@@H](O[C@H]2O[C@H](CO)[C@@H](O)[C@H](O)[C@H]2O)[C@H](O)[C@H]1O [DM, n-Decyl-β-D-maltopyranoside]",1.8 mM,42 Å^2,38.9 DYN/CM,Maximum concentration before inhibitory effects on cell growth was observed [3]: 0.28 g/L; Time to achieve equilibrium surface tension [4]: approximately 0.5 second; Effect on decrease of the enrichment factor ([5]; 0.28 g/L): less than PF-68® comparative material and the protective composition NM
"CCCCCCCCCO[C@@H]1O[C@H](CO)[C@@H](O[C@H]2O[C@H](CO)[C@@H](O)[C@H](O)[C@H]2O)[C@H](O)[C@H]1O [NM, n-Nonyl-β-D-maltopyranoside]",6 mM,59 Å^2,40.1 DYN/CM,"Maximum concentration before inhibitory effects on cell growth was observed [3]: 1.0 g/L; Median Diameter of bubbles ([6]; 22 gauge needle (large bubble), 0.6 g/L): 2.7 mm; Median Diameter of bubbles ([6]; 22 gauge needle (large bubble), 1.0 g/L): 2.5 mm; Median Diameter of bubbles ([6]; sintered glass sparger (microbubble), 0.6 g/L): 159 μm; Median Diameter of bubbles ([6]; sintered glass sparger (microbubble), 1.0 g/L): 157 μm; Effect on cell enrichment factor ([5]; 1.0 g/L): slightly decreases the enrichments factor further"
"CCCCCCCCCCCC[N+](C)(C)[O-] [DDAO, N,N-Dimethyldodecyl amine N-oxide]",2.0 mM,,,
"CCCCCCCCS[C@@H]1O[C@H](CO)[C@@H](O)[C@H](O)[C@H]1O [OT, n-Octyl-β-D-thioglucopyranoside]",11.0 mM,,,
"OC[C@H]1O[C@H](O[C@H]2[C@H](O)[C@@H](O)[C@H](OCCCCC3CCCCC3)O[C@@H]2CO)[C@H](O)[C@@H](O)[C@@H]1O [CM4, 4-Cyclohexyl-1-butyl-β-D-maltoside]",7.6 mM,,,
"CCCCCCCCO[C@@H]1O[C@H](CO)[C@@H](O[C@H]2O[C@H](CO)[C@@H](O)[C@H](O)[C@H]2O)[C@H](O)[C@H]1O [OM, n-Octyl-β-D-maltopyranoside]",24.5 mM,61 Å^2,41.5 DYN/CM,Maximum concentration before inhibitory effects on cell growth was observed [3]: 3.5 g/L; Toxicity to red blood cells [7]: less toxic to red blood cells than the OG comparative material
"CCCCCCCCCC[N+](C)(C)[O-] [DDeAO, N,N-Dimethyldecyl amine N-oxide]",6.4 mM,,,
"CCCCCCCCOS(=O)(=O)[O-].[Na+] [SOS, Sodium octyl sulfate]",85.6 mM,,,
"CCCCCCCCCCCCCCCC[N+](C)(C)C.[Br-] [CTAB, Hexadecyltrimethyl ammonium bromide]",1.3 mM,,,"Cytotoxicity (inhibition of cell growth, fluorescence intensity) [2]: most toxic to cells; Microscopic observation of cells [2]: completely lysed the cells"
"CCCCCCCCCCCCOS(=O)(=O)[O-].[Na+] [SDS, Sodium dodecyl sulfate]",2.3 mM,,,"Cytotoxicity (inhibition of cell growth, fluorescence intensity) ([2]; 0.01 CMC and 0.1 CMC, 48 hours): inhibitory"
"CCCCCCCCO[C@@H]1O[C@H](CO)[C@@H](O)[C@H](O)[C@H]1O [OG, n-Octyl-β-D-glucopyranoside]",27.1 mM,40 Å^2,32.5 DYN/CM,Toxicity relative to maltose head group analogue of same alkyl chain length [2]: more toxic
"CCCCCCCCCCO[C@@H]1O[C@H](CO)[C@@H](O)[C@H](O)[C@H]1O [DG, n-Decyl-β-D-glucopyranoside]",2.3 mM,32 Å^2,31.5 DYN/CM,Toxicity relative to maltose head group analogue of same alkyl chain length [2]: more toxic
